# Values quoted from earlier work, collected in US20260355131A1, “SPRAY-DRIED COMPOSITIONS COMPRISING ADRENERGIC RECEPTOR MODULATORS” (OREXO AB, priority 2023, published 2026).
# Columns and labels:
# [1] = free acid/base compound
# [2] = in solution
smiles,measurement,setting,value
CNC[C@H](O)c1ccc(O)c(O)c1 [epinephrine],aqueous solubility,[1],more limited aqueous solubility
same,pH below which epinephrine is stable,[2],below 4
same,optimum pH balancing racemization and oxidation,[2]; Connors et al,3.0-3.8
